Measured values reported in paper PMC8305076, “Comprehensive Evaluation of Biological Effects of Pentathiepins on Various Human Cancer Cell Lines and Insights into Their Mode of Action” (International Journal of Molecular Sciences, 2021).

Test system: YAPC
Assay: DCFDA flow cytometric ROS assay, acute
Format: cell-based, human
Settings: 25 µM, 15 min
Description: According to the hypothesized mechanism of action (see Figure 3), pentathiepins can create oxidative stress via generation of reactive sulfur precursors. We have previously reported that a representative pentathiepin can increase the intracellular levels of ROS in two cancer cell lines. This effect was thus further evaluated with the new compounds in seven cell lines (Figure 8). The cells were incubated for 15 min with 25.0 µM pentathiepin and subsequently analyzed by using the intracellular ROS sensor 2′,7′-dichlorodihydrofluorescein diacetate (DCFDA) by flow cytometry.
In order to quantify intracellular ROS, we performed a flow cytometric assay based on the ROS-sensor 2′,7′-dichlorofluorescein diacetate (DCFDA). For acute effects of pentathiepins on intracellular ROS levels, the cells were stained with DCFDA first and subsequently incubated with 25 µM of compound for 10 min. […] Per condition, 250,000 cells were seeded in 2 mL of medium per well of a 6-well plate and allowed to adhere overnight. For measurement of acute ROS, the cells were stained with 1 mL of a 20 µM DCFDA-PBS solution for 30 min under standard incubation conditions. Afterwards, the solution was discarded, and the monolayer washed twice with 1 mL of PBS before 3 mL of medium containing 25 µM of pentathiepin was added for 10 min at 37 °C. After removing the solution and washing again with PBS, the cells were detached by using 0.5 mL of a diluted trypsin/EDTA-PBS solution (25%) and harvested with 1 mL of culture medium by carefully rinsing the wells. The cell suspension was transferred to 1.5 mL tubes, centrifuged for 5 min at 500× g, and washed with 1 mL of PBS. After removing the supernatant, each pellet was resuspended in 0.5 mL of PBS for measurement via the MACSquant Analyzer 10 at λEx/Em = 488/530 nm. Relative ROS levels resulting from treatment with pentathiepin were calculated by relating the fluorescence intensity of treated samples to the negative control. For the experiments covering periods of 24 and 48 h, the cells were incubated with the compounds first and stained with DCFDA afterwards. To assess the influence of additional GSH, we included 3 or 30 µM GSH to the medium containing 25 µM of pentathiepin, and the protocol was followed as described.

## CCOc1c2c(c3ccc(C(=O)N4CCN(C(=O)c5ccc(F)cc5)CC4)cn13)SSSSS2 [Compound 5, (6-Ethoxy-[1,2,3,4,5]pentathiepino[6,7-a]indolizin-9-yl)(4-(4-fluorobenzoyl)piperazinyl)methanone]
  intracellular ROS levels: the only increase was monitored after incubation with 5
